Patent publication US8343475B2, “Small cationic antimicrobial peptides” (priority 2006, dated 2013)
≈ marks a conversion by molar mass, not a printed value. One block for each molecule: values may come before it. Residues, ends and D or L forms follow the SMILES beside them.

Tests used:
[1] = system: clinical isolates of MRSA; assay type: cell-based, Staphylococcus aureus
Procedure: (§1) Minimal inhibitory concentration (MIC) determination. The MIC of the peptides were measured using a modified broth microdilution method in Mueller Hinton (MH) medium (Wu M, Hancock R E W. 1999. Interaction of the cyclic antimicrobial cationic peptide bactenecin with the outer and cytoplasmic membrane. J Biol Chem 274, 29-35). Briefly, the peptides were dissolved and stored in glass vials. The assay was performed in sterile 96-well polypropylene microtitre plates were used. Serial dilutions of the peptides to be assayed were performed in 0.01% acetic acid (Fisher) containing 0.2% bovine serum albumin (Boehringer Mannheim GmbH) at 10× the desired final concentration. Ten microlitres of the 10× peptides were added to each well of a 96-well polypropylene plate containing 90 μl of MH media per well. Bacteria were added to the plate from an overnight culture at 2-7×10^5 colony forming units/ml and incubated over night at 37° C. The MIC was taken as the concentration at which no growth was observed.
(§2) All peptides derived from the 1st, 2nd, and 3rd quartiles were further evaluated for their antibacterial activities against several highly antibitoic resistant pathogens (Table 3). These included clinical isolates of MRSA, ESBL E. cloacae, and multidrug resistant Pseudomonas strains including Brazilian clinical isolates of P. aeruginosa that are resistant to meropenem, ceftazidime, piperacillin/tazobactam, ciprofloxacin, cefepime and polymyxin B, and the Liverpool Epidemic Strains. […] Such results characterize the developed peptides as excellent antibiotic candidates, providing new means for treating most dangerous and severe forms of human infections.

[2] = system: Liverpool Epidemic Strains; assay type: cell-based, Pseudomonas aeruginosa
Procedure: as §1, §2

[3] = system: multidrug resistant Brazilian clinical isolates of P. aeruginosa; assay type: cell-based, Pseudomonas aeruginosa
Procedure: as §1, §2

[4] = system: MCP-1 release by human PBMC; test: Chemokine induction in PBMC (capture ELISA); assay type: cell-based; conditions: background (204) subtracted
How it was run: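 Heparinized blood from healthy volunteers; Ficoll-isolated human PBMC (7.5×10^5) treated with peptides at 20 or 100 μg/ml for 24 hours at 37° C, 5% CO2. Cell-free supernatants assayed for MCP-1 by capture ELISA.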

[5] = system: CXCL1 (Gro-α) release by human PBMC; test: Chemokine induction in PBMC (capture ELISA); assay type: cell-based; conditions: background (196) subtracted
How it was run: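 Human PBMC from healthy donors' heparinised blood (Ficoll), 7.5×10^5 cells treated with 20 or 100 μg/ml peptide for 24 h at 37° C, 5% CO2. Cell-free supernatants assayed for CXCL1 by capture ELISA.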

[6] = system: ESBL Klebsiella pneumonia clinical strain 63575; assay type: cell-based
Procedure: as §1
(§3) The selected peptides were synthesized and assayed against several major antibiotic-resistant pathogens. Initially, the peptides were screened against the laboratory strain of P. aeruginosa PAO1 to compare the results with the training data. […] The antibacterial activity in the form of minimal inhibitory concentration (MIC) of the other studied peptides was assessed in greater depth (Table 9) against many highly antibiotic resistanct pathogens.

[7] = system: ESBL E. coli clinical strain 64771; assay type: cell-based; conditions: ESBL clinical strain 64771
Procedure: as §1, §3

[8] = system: multidrug resistant Pseudomonas maltophilia ATCC13637; assay type: cell-based
Procedure: as §1, §3

ESBL E. cloacae = assay type: cell-based, Enterobacter cloacae
Procedure: as §1, §2

[9] = system: Enterococcus faecalis ATCC29212; assay type: cell-based; conditions: ATCC29212
How it was run: (§4)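 No-growth endpoint after overnight culture at 37° C in Mueller Hinton broth. Inoculum: 2-7×10^5 CFU/ml. Peptide diluent: 0.01% acetic acid, 0.2% BSA.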

[10] = system: Staphylococcus aureus ATCC25923; assay type: cell-based; conditions: ATCC25923
How it was run: as §4

[11] = system: MCP-3 release by human PBMC; test: Chemokine induction in PBMC (capture ELISA); assay type: cell-based; conditions: background (6) subtracted
How it was run: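 Human PBMC from healthy donors (Ficoll-isolated), 7.5×10^5 cells at 0.75–1×10^6 cells/ml, treated with peptides at 20 or 100 μg/ml for 24 h at 37° C, 5% CO2. MCP-3 in cell-free supernatants measured by capture ELISA.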

[12] = system: Pseudomonas aeruginosa PAO1 strain H103; assay type: cell-based
How it was run: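 Modified broth microdilution MIC in Mueller Hinton medium, peptides diluted in 0.01% acetic acid/0.2% BSA, polypropylene plates. Inoculum 2-7×10^5 CFU/ml, overnight at 37 °C; MIC is the lowest concentration with no visible growth.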

[13] = system: lab isolate of Candida albicans; assay type: cell-based; conditions: lab isolate of
How it was run: as §4

[14] = system: clinical isolate of Staphylococcus epidermidis; assay type: cell-based; conditions: clinical isolate of
How it was run: as §4

[15] = system: wild-type Salmonella enterica ssp. typhimurium; assay type: cell-based
How it was run: as §4

Escherichia coli UB1005 = assay type: cell-based; conditions: UB1005
How it was run: as §4

SMILES: CC(C)C[C@H](NC(=O)[C@H](Cc1c[nH]c2ccccc12)NC(=O)[C@H](Cc1c[nH]c2ccccc12)NC(=O)[C@H](CCCCN)NC(=O)[C@H](Cc1c[nH]c2ccccc12)NC(=O)[C@H](CCCNC(=N)N)NC(=O)[C@H](CCCNC(=N)N)NC(=O)[C@H](Cc1c[nH]c2ccccc12)NC(=O)[C@@H](N)CCCNC(=N)N)C(N)=O [HHC9, RWRRWKWWL] (H-RWRRWKWWL-NH2; N-terminus assumed)
MIC [1]: 3 µM (≈ 4.42 µg/mL)
MIC [2]: 0.3 µM (≈ 0.442 µg/mL)
MIC [3]: 12 µM (≈ 17.7 µg/mL)
Chemokine induction MCP-1 ([4]; 20 μg/ml peptide): 9 pg/mL
Chemokine induction MCP-1 ([4]; 100 μg/ml peptide): 4493 pg/mL
Chemokine induction Gro-α ([5]; 20 μg/ml peptide): -25 pg/mL
Chemokine induction Gro-α ([5]; 100 μg/ml peptide): 5 pg/mL
MIC [6]: 11 µM (≈ 16.2 µg/mL)
MIC [7]: 3 µM (≈ 4.42 µg/mL)
MIC [8]: 0.7 µM (≈ 1.03 µg/mL)
MIC (ESBL E. cloacae): 6 µM (≈ 8.83 µg/mL)
MIC [9]: 23 µM (≈ 33.9 µg/mL)
MIC [10]: 3 µM (≈ 4.42 µg/mL)
Chemokine induction MCP-3 ([11]; 20 μg/ml peptide): -1 pg/mL
Chemokine induction MCP-3 ([11]; 100 μg/ml peptide): 48 pg/mL

SMILES: N=C(N)NCCC[C@H](NC(=O)[C@H](CCCNC(=N)N)NC(=O)[C@H](CCCCN)NC(=O)[C@H](Cc1c[nH]c2ccccc12)NC(=O)[C@H](Cc1c[nH]c2ccccc12)NC(=O)[C@H](CCCCN)NC(=O)[C@H](CCCCN)NC(=O)[C@@H](N)Cc1c[nH]c2ccccc12)C(=O)N[C@@H](Cc1c[nH]c2ccccc12)C(N)=O [HHC48, WKKWWKRRW] (H-WKKWWKRRW-NH2; N-terminus assumed)
MIC [1]: 39 µM (≈ 56.9 µg/mL)
MIC [2]: 6 µM (≈ 8.75 µg/mL)
MIC [3]: 46 µM (≈ 67.1 µg/mL)
Chemokine induction MCP-1 ([4]; 20 μg/ml peptide): 2 pg/mL
Chemokine induction MCP-1 ([4]; 100 μg/ml peptide): 12 pg/mL
Chemokine induction Gro-α ([5]; 20 μg/ml peptide): -8 pg/mL
Chemokine induction Gro-α ([5]; 100 μg/ml peptide): -10 pg/mL
MIC [6]: 46 µM (≈ 67.1 µg/mL)
MIC [7]: 3 µM (≈ 4.38 µg/mL)
MIC [8]: 1.4 µM (≈ 2.04 µg/mL)
MIC (ESBL E. cloacae): 23 µM (≈ 33.6 µg/mL)
MIC [9]: 93 µM (≈ 136 µg/mL)
MIC [10]: 1.4 µM (≈ 2.04 µg/mL)
Chemokine induction MCP-3 ([11]; 20 μg/ml peptide): -1 pg/mL
Chemokine induction MCP-3 ([11]; 100 μg/ml peptide): -1 pg/mL

SMILES: CC[C@H](C)[C@H](NC(=O)[C@H](CCCNC(=N)N)NC(=O)[C@H](C)NC(=O)[C@H](CC(C)C)NC(=O)[C@@H](N)CCCNC(=N)N)C(=O)N[C@H](C(=O)N[C@H](C(=O)N[C@H](C(=O)N[C@@H](CCCNC(=N)N)C(=O)N[C@H](C(=O)N[C@@H](C)C(=O)N[C@@H](CCCNC(=N)N)C(N)=O)C(C)C)[C@@H](C)CC)C(C)C)C(C)C [Bac2A, RLARIVVIRVAR-NH2, reference compound] (H-RLARIVVIRVAR-NH2; N-terminus assumed)
MIC [1]: 24 µM (≈ 34.1 µg/mL)
MIC [2]: 12 µM (≈ 17 µg/mL)
Chemokine induction MCP-1 ([4]; 20 μg/ml peptide): 316 pg/mL
Chemokine induction MCP-1 ([4]; 100 μg/ml peptide): 442 pg/mL
Chemokine induction Gro-α ([5]; 20 μg/ml peptide): 9 pg/mL
Chemokine induction Gro-α ([5]; 100 μg/ml peptide): 8 pg/mL
MIC [6]: 192 µM (≈ 273 µg/mL)
MIC [7]: 24 µM (≈ 34.1 µg/mL)
MIC [8]: 3 µM (≈ 4.26 µg/mL)
MIC P. aerug ([12]; PAO1): 50 µg/mL (≈ 35.2 µM)
MIC (ESBL E. cloacae): 24 µM (≈ 34.1 µg/mL)
MIC C. albicans [13]: 9 µg/mL (≈ 6.33 µM)
MIC S. epi. [14]: 4 µg/mL (≈ 2.82 µM)
MIC [9]: 12 µM (≈ 17 µg/mL)
MIC E. faecalis [9]: 17 µg/mL (≈ 12 µM)
MIC S. typhi [15]: 34 µg/mL (≈ 23.9 µM)
MIC [10]: 24 µM (≈ 34.1 µg/mL)
MIC S. aureus [10]: 17 µg/mL (≈ 12 µM)
MIC E. coli (Escherichia coli UB1005): 17 µg/mL (≈ 12 µM)
Chemokine induction MCP-3 ([11]; 20 μg/ml peptide): 2 pg/mL
Chemokine induction MCP-3 ([11]; 100 μg/ml peptide): 2 pg/mL

Now from value to molecule, other results behind:

MIC [1]: 3 µM (≈ 4.32 µg/mL)
MIC [2]: 1.5 µM (≈ 2.16 µg/mL)
MIC [6]: 24 µM (≈ 34.5 µg/mL)
MIC [7]: 6 µM (≈ 8.63 µg/mL)
MIC [8]: 0.8 µM (≈ 1.15 µg/mL)
MIC against P. aeruginosa PAO1 ([12]; PAO1): 4 to 12 µM
MIC (ESBL E. cloacae): 24 µM (≈ 34.5 µg/mL)
MIC [9]: 24 µM (≈ 34.5 µg/mL)
MIC [10]: 1.5 µM (≈ 2.16 µg/mL)
SMILES: N=C(N)NCCC[C@H](NC(=O)[C@H](CCCNC(=N)N)NC(=O)[C@@H](N)Cc1ccccc1)C(=O)N[C@@H](Cc1c[nH]c2ccccc12)C(=O)N[C@@H](Cc1c[nH]c2ccccc12)C(=O)N[C@@H](CCCCN)C(=O)N[C@@H](Cc1c[nH]c2ccccc12)C(=O)N[C@@H](Cc1ccccc1)C(=O)N[C@@H](CCCCN)C(N)=O [HHC53, FRRWWKWFK] (H-FRRWWKWFK-NH2; N-terminus assumed)
Chemokine induction MCP-1 ([4]; 20 μg/ml peptide): -26 pg/mL
Chemokine induction MCP-1 ([4]; 100 μg/ml peptide): 391 pg/mL
Chemokine induction Gro-α ([5]; 20 μg/ml peptide): -23 pg/mL
Chemokine induction Gro-α ([5]; 100 μg/ml peptide): 2 pg/mL
Chemokine induction MCP-3 ([11]; 20 μg/ml peptide): -1 pg/mL
Chemokine induction MCP-3 ([11]; 100 μg/ml peptide): 5 pg/mL

MIC [1]: 240 µM (≈ 272 µg/mL)
MIC [2]: 120 µM (≈ 136 µg/mL)
MIC [6]: >240 µM
MIC [7]: 120 µM (≈ 136 µg/mL)
MIC [8]: 60 µM (≈ 67.9 µg/mL)
MIC (ESBL E. cloacae): >240 µM
MIC [9]: >240 µM
MIC [10]: 240 µM (≈ 272 µg/mL)
SMILES: CC(C)[C@H](NC(=O)[C@H](CCCNC(=N)N)NC(=O)[C@H](CCCCN)NC(=O)[C@@H](NC(=O)[C@H](Cc1ccccc1)NC(=O)[C@H](CCCCN)NC(=O)[C@H](Cc1c[nH]c2ccccc12)NC(=O)[C@@H](NC(=O)[C@H](C)N)C(C)C)C(C)C)C(N)=O [HHC123, AVWKFVKRV] (H-AVWKFVKRV-NH2; N-terminus assumed)
Chemokine induction MCP-1 ([4]; 20 μg/ml peptide): 46 pg/mL
Chemokine induction MCP-1 ([4]; 100 μg/ml peptide): 204 pg/mL
Chemokine induction Gro-α ([5]; 20 μg/ml peptide): -25 pg/mL
Chemokine induction Gro-α ([5]; 100 μg/ml peptide): 17 pg/mL
antimicrobial activity against P. aeruginosa PAO1 (in words) ([12]; laboratory strain P. aeruginosa PAO1): did not return any generally active substances
Chemokine induction MCP-3 ([11]; 20 μg/ml peptide): 0 pg/mL
Chemokine induction MCP-3 ([11]; 100 μg/ml peptide): 3 pg/mL
